Key:
[1] = tested on: Rattus norvegicus; assay: Dose required to inhibit 50% of the angiotensin I induced vasopressor response p.o.; type: functional; conditions: po, read-out: ID50 (the source's name)
[2] = tested on: Rattus norvegicus; assay: Dose required to lower blood pressure of SHR by 25 mmHg at 4-h post dose p.o.; type: functional; conditions: po
[3] = target: T1, Angiotensin-converting enzyme (Rattus norvegicus, UniProt P47820); assay: In vitro inhibitory activity against Angiotensin I converting enzyme
T1 sequence (P47820 whole entry): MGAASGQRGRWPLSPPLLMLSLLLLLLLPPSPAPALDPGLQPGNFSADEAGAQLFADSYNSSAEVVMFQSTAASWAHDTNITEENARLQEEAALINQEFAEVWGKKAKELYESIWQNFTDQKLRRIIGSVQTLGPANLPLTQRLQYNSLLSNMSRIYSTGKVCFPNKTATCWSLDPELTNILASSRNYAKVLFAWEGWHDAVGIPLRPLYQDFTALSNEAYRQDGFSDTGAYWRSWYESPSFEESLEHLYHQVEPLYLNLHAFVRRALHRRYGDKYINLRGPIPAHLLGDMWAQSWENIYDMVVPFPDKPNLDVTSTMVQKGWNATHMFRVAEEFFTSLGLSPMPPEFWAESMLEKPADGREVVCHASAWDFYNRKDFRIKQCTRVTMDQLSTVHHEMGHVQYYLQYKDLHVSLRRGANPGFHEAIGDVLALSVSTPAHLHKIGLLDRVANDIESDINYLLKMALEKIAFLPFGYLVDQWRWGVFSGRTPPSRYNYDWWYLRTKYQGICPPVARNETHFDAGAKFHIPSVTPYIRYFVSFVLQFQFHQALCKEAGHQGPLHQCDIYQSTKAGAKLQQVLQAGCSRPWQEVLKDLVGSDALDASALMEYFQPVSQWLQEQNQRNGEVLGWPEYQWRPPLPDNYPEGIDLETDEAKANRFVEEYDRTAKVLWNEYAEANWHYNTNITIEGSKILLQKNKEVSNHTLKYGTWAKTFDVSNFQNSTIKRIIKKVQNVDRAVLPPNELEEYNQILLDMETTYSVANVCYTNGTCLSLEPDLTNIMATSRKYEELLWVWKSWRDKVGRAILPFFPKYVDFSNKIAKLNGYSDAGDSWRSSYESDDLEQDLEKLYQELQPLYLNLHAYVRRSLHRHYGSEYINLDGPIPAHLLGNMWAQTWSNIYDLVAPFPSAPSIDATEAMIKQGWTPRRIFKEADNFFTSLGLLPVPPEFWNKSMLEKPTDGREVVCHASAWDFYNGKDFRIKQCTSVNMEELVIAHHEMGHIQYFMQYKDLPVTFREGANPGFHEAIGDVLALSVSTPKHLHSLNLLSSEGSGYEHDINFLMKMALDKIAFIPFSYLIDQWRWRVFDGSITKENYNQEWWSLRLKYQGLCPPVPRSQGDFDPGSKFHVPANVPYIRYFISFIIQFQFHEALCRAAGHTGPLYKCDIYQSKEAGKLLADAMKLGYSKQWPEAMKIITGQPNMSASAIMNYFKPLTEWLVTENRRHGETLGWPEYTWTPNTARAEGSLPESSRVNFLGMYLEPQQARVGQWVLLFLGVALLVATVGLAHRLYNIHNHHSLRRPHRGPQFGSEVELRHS

SMILES | ED50 [1] | ED25 [2] | IC50 [3]
C[C@H](CS)C(=O)N1CCC[C@H]1C(=O)O [CAPTOPRIL] | 0.57 mg/kg | 17.8 mg/kg | 
C[C@H](CSC(=O)c1ccccc1)C(=O)N1c2ccccc2C[C@H]1C(=O)O [listing 1 of 2 here] |  |  | 0.32 µM
C=C(C)C(=O)N1c2ccccc2CC1C(=O)O (stereo not drawn) |  |  | > 1000 µM
C=CC(=O)N1c2ccccc2CC1C(=O)O (stereo not drawn) |  |  | > 1000 µM
C[C@H](CSC(=O)c1ccccc1)C(=O)N1c2ccccc2C[C@H]1C(=O)O [listing 2 of 2 here] | 2 mg/kg | 1.03 mg/kg | 0.038 µM
C[C@H](CSC[C@@H](C)C(=O)N1c2ccccc2C[C@H]1C(=O)O)C(=O)N1c2ccccc2C[C@H]1C(=O)O |  | 24 mg/kg | 1.3 µM
COc1ccc2c(c1)CC(C(=O)O)N2C(=O)C(C)CSC(=O)c1ccccc1 (stereo not drawn) [listing 1 of 2 here] |  |  | 0.097 µM
C=C(C)C(=O)N1c2ccccc2C[C@H]1C(=O)O |  |  | > 100 µM
C1CCC(NC2CCCCC2)CC1.COc1ccc2c(c1)C[C@@H](C(=O)O)N2C(=O)[C@H](C)CSC(=O)c1ccccc1 |  | 20 mg/kg | 0.042 µM
C[C@@H](CSC(=O)c1ccccc1)C(=O)N1c2ccccc2C[C@@H]1C(=O)O (racemic) |  | 100 mg/kg | 1.2 µM
C[C@@H](CSC(=O)c1ccccc1)C(=O)N1c2ccccc2C[C@@H]1C(=O)O [listing 1 of 2 here] |  |  | > 100 µM
C[C@@H](CSC(=O)c1ccccc1)C(=O)N1c2ccccc2C[C@H]1C(=O)O (racemic) |  |  | 3.5 µM
COc1ccc2c(c1)CC(C(=O)O)N2C(=O)C(C)CSC(=O)c1ccccc1 (stereo not drawn) [listing 2 of 2 here] |  |  | 0.094 µM
C[C@@H](CSC(=O)c1ccccc1)C(=O)N1c2ccccc2C[C@@H]1C(=O)O [listing 2 of 2 here] |  |  | > 100 µM
C=C(C)C(=O)N1c2ccc(OC)cc2CC1C(=O)O (stereo not drawn) |  |  | > 1000 µM
C[C@@H]1CSC(=O)[C@H]2Cc3ccccc3N2C1=O |  |  | 20 µM
C=C(C)C(=O)N1c2ccccc2C[C@@H]1C(=O)O |  |  | > 1000 µM
CC(CSC(=O)c1ccccc1)C(=O)N1c2ccccc2CC1C(=O)O (stereo in doubt; form 2) |  |  | 0.078 µM
C[C@@H]1CSC(=O)[C@@H]2Cc3ccccc3N2C1=O |  | 2 mg/kg | 0.014 µM
CC(=O)SCC(C)C(=O)N1c2ccccc2CC1C(=O)O (stereo in doubt; form 2) |  | 13 mg/kg | 0.011 µM
O=C(SCCC(=O)N1c2ccccc2CC1C(=O)O)c1ccccc1 (stereo not drawn) | 1.95 mg/kg | 12.5 mg/kg | 0.059 µM
C[C@@H](CSC(=O)c1ccccc1)C(=O)N1c2ccccc2C[C@H]1C(=O)O |  |  | 0.38 µM
CC(=O)SCC(C)C(=O)N1c2ccccc2CC1C(=O)O (stereo in doubt; form 1) |  |  | 15 µM
CCc1ccc2c(c1)CC(C(=O)O)N2C(=O)C(C)CSC(=O)c1ccccc1 (stereo not drawn) |  | > 100 mg/kg | 0.03 µM
C1CCC(NC2CCCCC2)CC1.C[C@@H](CSC(=O)c1ccccc1)C(=O)N1c2ccccc2C[C@H]1C(=O)O |  | 39 mg/kg | 0.54 µM
CC(CSC(=O)c1ccccc1)C(=O)N1c2ccccc2CC1C(=O)O (stereo in doubt; form 1) |  |  | 0.41 µM

— ChEMBL document CHEMBL1122455, “(Mercaptopropanoyl)indoline-2-carboxylic acids and related compounds as potent angiotensin converting enzyme inhibitors and antihypertensive agents” (J Med Chem, 1983)
